The values that follow come from patent US20260373132A1, “PERK INHIBITORHC-5404 IN COMBINATION WITH ANTI-PD-1 ANTIBODY AND/OR AN ANTIANGIOGENETIC AGENT FOR USE IN THE TREATMENT OF CANCER” (HIBERCELL, INC., priority 2022, published 2026).

The structures appear in SMILES notation.

Test [1] deals with Capan-2 pancreatic tumor xenografts. In words: CAPAN-2 pancreatic xenograft tumor growth. The conditions noted are these: for TGI: 48 days. In kind it is in vivo, mouse.
The subject of another test is 468 unique kinases. In words: KINOMEScan biochemical panel assay. The format is binding, human. The method, then: (§1) The selectivity of HC-5404 against the broader kinome was then evaluated using a KINOMEScan biochemical panel assay that measured binding against 468 unique kinases, including 403 wild-type human kinases and 59 mutant isoforms.
The subject of the next test is Caki-1 RCC xenograft. Put plainly: Caki-1 RCC xenograft tumor growth. The format is in vivo, mouse. The protocol:
Xenograft RCC models were generated as follows: Female NOD.SCID mice (6-8 weeks of age) were injected with A498 RCC cells (5×10^6 cells/mouse), female Balb/c Nude mice (6-8 weeks old) were implanted with 786-O RCC cells (5×10^6 cells/mouse) or Caki-1 RCC cells (6×10^6 cells/mouse), female Athymic Nude-Foxn1nu mice (7-8 weeks of age) were implanted with MFE280 endometrial cells (10×10^6 cells/mouse). Cells were implanted into the flank of animals.
Once tumor tumors reached volume of typically 150-250 mm^3, animals were randomized by tumor volume into the treatment groups of 8 or 10 animals per group. In the single animal trial with RCC PDX models, only one animal per group was enrolled.
Body weight and tumor volume were measured twice weekly. Tumor volume was calculated using the formula [tumor volume (mm^3)=π/6×length×width^2] and plotted as means+SEM. The percentage of tumor growth inhibition was calculated at the end of the study using the formula: […], if ΔT>0, ΔT, mean tumor volume of the drug-treated group on the observation day of the study—mean tumor volume of the drug-treated group on initial day of dosing; ΔC, mean tumor volume of the control group on the observation day of the study—mean tumor volume of the control group on initial day of dosing. Regression was calculated using the formula=100×ΔT/Tinitial, if ΔT<0. Animals with >50% regressions were partial responders. Animals with tumor volume of 0 (no measurable tumor) were considered as complete responders, and animals with <50% tumor regression and 30% growth over the baseline were considered as stable disease. Animals with tumors>30% increase over the baseline were considered progressive disease. The % change in body weight was calculated by the formula (body weight on observation day−body weight on initial day)/body weight on initial day×100%.

The subject of test [2] is mouse bone marrow-derived MDSCs / T cells. Put plainly: mouse T cell suppression assay with bone marrow-derived MDSCs. The format is cell-based. The note with it: LSLG + 500 nM (FIG. 11A, 11C). The method, then:
Mouse MDSC Preparation: Single cell suspensions from bone marrow were prepared from the tibia and femur bone of C57BL/6 mice. Cells were cultured in RPMI complete medium (RPMI medium supplemented with 10% FBS, 10 mM HEPES, 1 mM Sodium pyruvate, 50 uM 2-ME, 1 mM MEM NEAA, 1× penicillin-streptomycin and 2 mM L-glutamax) at 2.5×10^6 cells per 10 ml in a […] tissue culture dish for 4 days in a 37 0 °C, 5% CO2 humidified incubator. Cytokines GM-CSF (10 ng/ml) and IL-6 (10 ng/mL) were added to the cell culture on day 0. For low serum low glucose (LSLG) medium treatment, cultured cells were first harvested from the plate and washed twice with RPMI medium to rinse off residual serum and glucose, and then cultured in 5 ml of LSLG medium (glucose-free RPMI supplemented with 1% FBS, 1 g/L glucose, 1× penicillin-streptomycin and 2 mM L-glutamax) in a 15 ml conical tube for 6 hours with or without HC-5404 addition. Cells were harvested and used in the T cell suppression assay.
Mouse T cell suppression assay: Spleens were harvested from C57BL/6 mice. […] T cell proliferation was analyzed by flow cytometry. […] The labeled cells were analyzed on a BD Fortessa cytometer and data was analyzed by FlowJo. […] Data were analyzed using one-way ANOVA with multiple comparison corrected with Dunnett test. *P<0.05; **P<0.01; ***P<0.005, ****P<0.0001 (FIGS. 11A, 11B, and 11C).

The next test concerns pPERK in mouse pancreas. In words: pPERK inhibition (PD) in mouse pancreas. The format is in vivo. The protocol:
The PK/PD relationship was evaluated in mouse pancreas, as the pancreas has elevated pPERK activity that makes it suitable for PD analysis. […] At these concentrations, pPERK inhibition was approximately 90% (FIG. 19).

A further test concerns RXF-2304. Put plainly: RCC PDX single animal trial, RXF-2304. In kind it is in vivo, mouse. The note with it: HC-5404 30 mg/kg PO BID, n=1. The source says:
This example investigated the effect of HC-5404 in combination with VEGFR-TKIs in inhibiting tumor growth using 12 RCC PDX tumor models, following procedures analogous to those described above.
Single animal per group (n=1) trial of animals harboring diverse RCC PDX models were used in this study.

For the next test, the target named is RIOK2 (Homo sapiens, UniProt Q9BVS4). Put plainly: KINOMEScan biochemical panel assay, RIOK2. The note with it: 1000 nM. The format is binding. The protocol:
as §1

Chain of RIOK2 (Q9BVS4 whole entry): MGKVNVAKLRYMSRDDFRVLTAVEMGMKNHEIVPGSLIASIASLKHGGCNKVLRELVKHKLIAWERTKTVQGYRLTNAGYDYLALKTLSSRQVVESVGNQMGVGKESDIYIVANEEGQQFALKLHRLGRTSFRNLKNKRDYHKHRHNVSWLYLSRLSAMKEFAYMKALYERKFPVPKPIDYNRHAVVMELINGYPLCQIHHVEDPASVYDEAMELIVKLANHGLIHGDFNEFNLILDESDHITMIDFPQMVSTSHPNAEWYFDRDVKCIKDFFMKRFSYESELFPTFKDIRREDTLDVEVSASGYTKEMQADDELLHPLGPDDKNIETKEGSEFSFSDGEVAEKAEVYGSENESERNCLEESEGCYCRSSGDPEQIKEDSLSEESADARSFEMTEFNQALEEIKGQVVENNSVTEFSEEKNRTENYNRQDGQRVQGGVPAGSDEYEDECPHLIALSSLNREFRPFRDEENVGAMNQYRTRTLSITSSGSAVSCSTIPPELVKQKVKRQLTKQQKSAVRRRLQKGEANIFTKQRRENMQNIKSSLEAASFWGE

The term TGI denotes the reduction of tumour growth relative to the control group. A high value points to a stronger effect on the tumour. A word on the inhibition: it is the relative decrease from the control value, in per cent. A higher inhibition goes with a response far below the control. With `Cc1cc(NC(=O)[C@H](O)c2cc(F)cc(F)c2)ccc1-c1cnc(N)c(C(=O)NC(C)C)c1` [HC-5404, (R)-2-amino-5-(4-(2-(3,5-difluorophenyl)-2-hydroxyacetamido)-2-methylphenyl)-N-isopropylnicotinamide], the TGI is 50% in test [1] (30 mg/kg PO BID) and 43% in test [1] (100 mg/kg PO BID). The “difference between dose levels in TGI” value in test [1] (30 vs 100 mg/kg BID) is listed as “No difference between the dose levels”. In addition, in the test with 468 unique kinases (100 nM, PERK not in panel), the “interactions in kinome panel” value is recorded as “no interactions observed”. In addition, the “number of kinases inhibited >65%” value in the test with 468 unique kinases (10,000 nM) is listed as 9 kinases. Besides, the “effect on growth of Caki-1 model” value in the test with Caki-1 RCC xenograft (10 and 30 mg/kg PO BID tested, 28 days (FIG. 36)) is recorded as “minimal effect”. The “sensitivity of Caki-1 to monotherapy” value in the test on Caki-1 RCC xenograft (HC-5404 or sunitinib monotherapy, compared with A498 (FIG. 32)) is reported as “far less sensitive”. The “inhibition of T-cells by MDSCs” value in test [2] is on record as “reduced inhibition of T-cells”. The “time until basal pPERK levels restored in pancreas” value in the test with pPERK in mouse pancreas (30 mg/kg PO, after dosing) was at most 12 h. In addition, in the test with pPERK in mouse pancreas (100 mg/kg PO, first 12 h), the “pPERK activity remaining in pancreas” value was below 20%. In the test on pPERK in mouse pancreas (Mus musculus, 30 mg/kg PO, 1 h), the inhibition at 30 mg/kg was around 90%. The “inhibition of p-PERK in pancreas tissue” value in the test on pPERK in mouse pancreas (PO) is “time-dependent and dose-dependent inhibition of p-PERK”. Further, the “antitumor efficacy as monotherapy” value in the test with RXF-2304 is reported as “exhibited antitumor efficacy”. Besides, the “inhibition of RIOK2” value against RIOK2 is listed as “inhibited”.
